Assay results taken from US12281149B2, “Modulators of G-protein coupled receptors” (priority 2021, dated 2025).
*1 amine or outer side, *2 acyl side, *3 side chain or, on linkers, in order; H or OH if unused. Where a SMILES comes first, the peptide text is derived from it. Side-chain parts run from the residue outwards. [ ]: non-standard residue; d: D form. The star is where a group is joined. C20 diacid = O=C(O)CCCCCCCCCCCCCCCCCCC(=O)*; β2hAla(2S) = C[C@@H](CN[*:1])C(=O)[*:2]; γGlu = O=C(O)[C@H](CCC(=O)[*:2])N[*:1]; X18 = O=C(C1(c2cccc(F)c2)CCCC1)*; X72 = CC(C)(C(=O)*)c1cccc(Cl)c1F; X8 = O=C(CCNCc1cc(O)cc(F)c1)*; X23 = CC(C)(C(=O)*)c1ccncc1; X29 = Fc1ccc(N*)c(F)c1; AEEA = NCCOCCOCC(=O)O; Aib = CC(C)(N)C(=O)O; CO = O=C([*:1])[*:2]; GABA = NCCCC(=O)O; βAla = NCCC(=O)O

How the values were obtained:
Format in all cases: cell-based
[1] = biological target: T1, GIP receptor (Homo sapiens, UniProt P48546); assay: PathHunter β-arrestin assay, GIP receptor; design: host or cells: PathHunter CHO-K1 GIPR β-Arrestin Cell Line; conditions: β-arrestin-2 recruitment, PathHunter CHO-K1 GIPR β-Arrestin Cell Line, 90 min at 37° C.; normalized to GIP; read-out: GIPR β Arrestin EC50
T1 sequence (P48546 22-466): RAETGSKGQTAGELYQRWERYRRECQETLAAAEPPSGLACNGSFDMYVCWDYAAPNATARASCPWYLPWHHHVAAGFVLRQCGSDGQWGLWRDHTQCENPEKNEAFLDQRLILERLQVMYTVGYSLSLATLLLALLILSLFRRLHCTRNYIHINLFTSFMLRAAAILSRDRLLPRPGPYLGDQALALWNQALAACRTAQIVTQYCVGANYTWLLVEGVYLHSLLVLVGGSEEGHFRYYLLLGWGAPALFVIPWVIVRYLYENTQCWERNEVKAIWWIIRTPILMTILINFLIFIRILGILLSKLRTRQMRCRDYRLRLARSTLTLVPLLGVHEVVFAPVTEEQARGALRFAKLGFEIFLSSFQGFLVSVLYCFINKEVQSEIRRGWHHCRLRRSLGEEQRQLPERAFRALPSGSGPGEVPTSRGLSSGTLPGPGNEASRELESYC

[2] = biological target: T2, GLP-1 receptor (Homo sapiens, UniProt P43220); assay: PathHunter β-arrestin assay, GLP-1 receptor; design: host or cells: PathHunter CHO-K1 GLP1R β-Arrestin Cell Line; conditions: β-arrestin-2 recruitment, PathHunter CHO-K1 GLP1R β-Arrestin Cell Line, 90 min at 37° C.; normalized to GLP-1; read-out: GLP-1R β Arrestin EC50
[3] = biological target: T2, GLP-1 receptor; assay: HitHunter cAMP assay, GLP-1 receptor; conditions: for EC50: CHO cells stably expressing human GLP-1 receptor, cAMP accumulation, 30 min, read-out: EC50 GLP-1R; for Emax: CHO cells, cAMP, normalized to maximum signal from GLP-1 (high) and DMSO (low), read-out: Emax GLP-1R
[4] = biological target: T1, GIP receptor; assay: HitHunter cAMP assay, GIP receptor; conditions: for EC50: CHO cells stably expressing GIP receptor, cAMP accumulation, 30 min, read-out: EC50 GIP-1R; for Emax: CHO cells, cAMP, normalized to maximum signal from GIP (high) and DMSO (low), read-out: Emax GIP-1R

T2 sequence (P43220 24-463): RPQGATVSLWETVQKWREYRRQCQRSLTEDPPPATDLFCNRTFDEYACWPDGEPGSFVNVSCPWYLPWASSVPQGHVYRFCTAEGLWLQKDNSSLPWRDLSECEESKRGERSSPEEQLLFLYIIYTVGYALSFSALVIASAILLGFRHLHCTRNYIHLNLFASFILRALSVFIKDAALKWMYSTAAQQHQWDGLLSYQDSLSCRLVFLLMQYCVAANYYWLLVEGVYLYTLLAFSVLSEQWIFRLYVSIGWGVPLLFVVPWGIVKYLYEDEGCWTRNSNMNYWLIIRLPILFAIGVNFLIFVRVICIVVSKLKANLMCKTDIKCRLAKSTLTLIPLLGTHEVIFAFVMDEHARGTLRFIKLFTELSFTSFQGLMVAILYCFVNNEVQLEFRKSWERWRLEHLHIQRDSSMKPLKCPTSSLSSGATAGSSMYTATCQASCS

## CC[C@H](C)[C@H](NC(=O)[C@H](CC(C)C)NC(=O)[C@H](Cc1c[nH]c2ccccc12)NC(=O)[C@H](CCC(N)=O)NC(=O)[C@@H](NC(=O)[C@H](Cc1ccccc1)NC(=O)[C@H](C)NC(=O)[C@H](CCCCNC(=O)COCCOCCNC(=O)COCCOCCNC(=O)CC[C@H](NC(=O)CCCCCCCCCCCCCCCCCCC(=O)O)C(=O)O)NC(=O)[C@H](CCC(N)=O)NC(=O)[C@H](C)NC(=O)[C@@H](NC(=O)[C@H](CCCCN)NC(=O)[C@H](CC(=O)O)NC(=O)[C@H](CC(C)C)NC(=O)C(C)(C)NC(=O)[C@@H](NC(=O)[C@H](CO)NC(=O)[C@H](Cc1ccc(O)cc1)NC(=O)[C@H](CC(=O)O)NC(=O)[C@H](CO)NC(=O)[C@@H](NC(=O)[C@H](Cc1ccccc1)NC(=O)[C@@H](NC(=O)CNC(=O)[C@H](CCC(=O)O)NC(=O)CCNC(=O)C(C)(C)c1cccc(Cl)c1F)[C@@H](C)O)[C@@H](C)O)[C@@H](C)CC)[C@@H](C)CC)C(C)C)C(=O)N[C@@H](C)C(=O)NCC(=O)NCC(=O)N1CCC[C@H]1C(=O)N[C@@H](CO)C(=O)N[C@@H](CO)C(=O)NCC(=O)N[C@@H](C)C(=O)N1CCC[C@H]1C(=O)N1CCC[C@H]1C(=O)N1CCC[C@H]1C(=O)N[C@@H](CO)C(N)=O [Compound 219] ({X72-βAla}-EGTFTSDYSI[Aib]LDKIAQK([AEEA-AEEA-γGlu-C20 diacid])AFVQWLIAGGPSSGAPPPS-NH2)
[1]
  EC50: < 1 µM
[2]
  EC50: > 1 µM
[3]
  EC50: < 0.0001 µM
  Emax: 104%
[4]
  EC50: 0.0001 to 0.001 µM
  Emax: 106%

## CC[C@H](C)[C@H](NC(=O)[C@H](CC(C)C)NC(=O)[C@H](Cc1c[nH]c2ccccc12)NC(=O)[C@H](CCC(N)=O)NC(=O)[C@@H](NC(=O)[C@H](Cc1ccccc1)NC(=O)[C@H](C)NC(=O)[C@H](CCCCNC(=O)COCCOCCNC(=O)COCCOCCNC(=O)CC[C@H](NC(=O)CCCCCCCCCCCCCCCCCCC(=O)O)C(=O)O)NC(=O)[C@H](CCC(N)=O)NC(=O)[C@H](C)NC(=O)[C@@H](NC(=O)[C@H](CCCCN)NC(=O)[C@H](CC(=O)O)NC(=O)[C@H](CC(C)C)NC(=O)C(C)(C)NC(=O)[C@@H](NC(=O)[C@H](CO)NC(=O)[C@H](Cc1ccc(O)cc1)NC(=O)[C@H](CC(=O)O)NC(=O)[C@H](CO)NC(=O)[C@@H](NC(=O)[C@H](Cc1ccccc1)NC(=O)[C@@H](NC(=O)CNC(=O)[C@H](CCC(=O)O)NC(=O)CCNC(=O)C(C)(C)c1ccncc1)[C@@H](C)O)[C@@H](C)O)[C@@H](C)CC)[C@@H](C)CC)C(C)C)C(=O)N[C@@H](C)C(=O)NCC(=O)NCC(=O)N1CCC[C@H]1C(=O)N[C@@H](CO)C(=O)N[C@@H](CO)C(=O)NCC(=O)N[C@@H](C)C(=O)N1CCC[C@H]1C(=O)N1CCC[C@H]1C(=O)N1CCC[C@H]1C(=O)N[C@@H](CO)C(N)=O [Compound 238] ({X23-βAla}-EGTFTSDYSI[Aib]LDKIAQK([AEEA-AEEA-γGlu-C20 diacid])AFVQWLIAGGPSSGAPPPS-NH2)
[1]
  EC50: > 1 µM
[2]
  EC50: > 1 µM
[3]
  EC50: 0.0001 to 0.001 µM
  Emax: 91%
[4]
  EC50: 0.01 to 0.1 µM
  Emax: 100%

## CC[C@H](C)[C@H](NC(=O)[C@H](CC(C)C)NC(=O)[C@H](Cc1c[nH]c2ccccc12)NC(=O)[C@H](CCC(N)=O)NC(=O)[C@@H](NC(=O)[C@H](Cc1ccccc1)NC(=O)[C@H](C)NC(=O)[C@H](CCCCNC(=O)COCCOCCNC(=O)COCCOCCNC(=O)CC[C@H](NC(=O)CCCCCCCCCCCCCCCCCCC(=O)O)C(=O)O)NC(=O)[C@H](CCC(N)=O)NC(=O)[C@H](C)NC(=O)[C@@H](NC(=O)[C@H](CCCCN)NC(=O)[C@H](CC(=O)O)NC(=O)[C@H](CC(C)C)NC(=O)C(C)(C)NC(=O)[C@@H](NC(=O)[C@H](CO)NC(=O)[C@H](Cc1ccc(O)cc1)NC(=O)[C@H](CC(=O)O)NC(=O)[C@H](CO)NC(=O)[C@@H](NC(=O)[C@H](Cc1ccccc1)NC(=O)[C@@H](NC(=O)CNC(=O)[C@H](CCC(=O)O)NC(=O)CCNCc1cc(O)cc(F)c1)[C@@H](C)O)[C@@H](C)O)[C@@H](C)CC)[C@@H](C)CC)C(C)C)C(=O)N[C@@H](C)C(=O)NCC(=O)NCC(=O)N1CCC[C@H]1C(=O)N[C@@H](CO)C(=O)N[C@@H](CO)C(=O)NCC(=O)N[C@@H](C)C(=O)N1CCC[C@H]1C(=O)N1CCC[C@H]1C(=O)N1CCC[C@H]1C(=O)N[C@@H](CO)C(N)=O [Compound 277] (X8-EGTFTSDYSI[Aib]LDKIAQK([AEEA-AEEA-γGlu-C20 diacid])AFVQWLIAGGPSSGAPPPS-NH2)
[1]
  EC50: > 1 µM
[2]
  EC50: > 1 µM
[3]
  EC50: 0.001 to 0.01 µM
  Emax: 89%
[4]
  EC50: 0.1 to 1 µM
  Emax: 6%

## CC[C@H](C)[C@H](NC(=O)[C@H](CC(C)C)NC(=O)[C@H](Cc1c[nH]c2ccccc12)NC(=O)[C@H](CCC(N)=O)NC(=O)[C@@H](NC(=O)[C@H](Cc1ccccc1)NC(=O)[C@H](C)NC(=O)[C@H](CCCCNC(=O)COCCOCCNC(=O)COCCOCCNC(=O)CC[C@H](NC(=O)CCCCCCCCCCCCCCCCCCC(=O)O)C(=O)O)NC(=O)[C@H](CCC(N)=O)NC(=O)[C@H](C)NC(=O)[C@@H](NC(=O)[C@H](CCCCN)NC(=O)[C@H](CC(=O)O)NC(=O)[C@H](CC(C)C)NC(=O)C(C)(C)NC(=O)[C@@H](NC(=O)[C@H](CO)NC(=O)[C@H](Cc1ccc(O)cc1)NC(=O)[C@H](CC(=O)O)NC(=O)[C@H](CO)NC(=O)[C@@H](NC(=O)[C@H](Cc1ccccc1)NC(=O)[C@@H](NC(=O)CNC(=O)[C@H](CCC(=O)O)NC(=O)CCCNC(=O)CNC(=O)Nc1ccc(F)cc1F)[C@@H](C)O)[C@@H](C)O)[C@@H](C)CC)[C@@H](C)CC)C(C)C)C(=O)N[C@@H](C)C(=O)NCC(=O)NCC(=O)N1CCC[C@H]1C(=O)N[C@@H](CO)C(=O)N[C@@H](CO)C(=O)NCC(=O)N[C@@H](C)C(=O)N1CCC[C@H]1C(=O)N1CCC[C@H]1C(=O)N1CCC[C@H]1C(=O)N[C@@H](CO)C(N)=O [Compound 267] ({X29-CO}-G[GABA]EGTFTSDYSI[Aib]LDKIAQK([AEEA-AEEA-γGlu-C20 diacid])AFVQWLIAGGPSSGAPPPS-NH2)
[1]
  EC50: > 1 µM
[2]
  EC50: > 1 µM
[3]
  EC50: 0.001 to 0.01 µM
  Emax: 105%
[4]
  EC50: 0.001 to 0.01 µM
  Emax: 106%

## CC[C@H](C)[C@H](NC(=O)[C@H](CC(C)C)NC(=O)[C@H](Cc1c[nH]c2ccccc12)NC(=O)[C@H](CCC(N)=O)NC(=O)[C@@H](NC(=O)[C@H](Cc1ccccc1)NC(=O)[C@H](C)NC(=O)[C@H](CCCCNC(=O)COCCOCCNC(=O)COCCOCCNC(=O)CC[C@H](NC(=O)CCCCCCCCCCCCCCCCCCC(=O)O)C(=O)O)NC(=O)[C@H](CCC(N)=O)NC(=O)[C@H](C)NC(=O)[C@@H](NC(=O)[C@H](CCCCN)NC(=O)[C@H](CC(=O)O)NC(=O)[C@H](CC(C)C)NC(=O)C(C)(C)NC(=O)[C@@H](NC(=O)[C@H](CO)NC(=O)[C@H](Cc1ccc(O)cc1)NC(=O)[C@H](CC(=O)O)NC(=O)[C@H](CO)NC(=O)[C@@H](NC(=O)[C@H](Cc1ccccc1)NC(=O)[C@@H](NC(=O)CNC(=O)[C@H](CCC(=O)O)NC(=O)[C@@H](C)CNC(=O)C1(c2cccc(F)c2)CCCC1)[C@@H](C)O)[C@@H](C)O)[C@@H](C)CC)[C@@H](C)CC)C(C)C)C(=O)N[C@@H](C)C(=O)NCC(=O)NCC(=O)N1CCC[C@H]1C(=O)N[C@@H](CO)C(=O)N[C@@H](CO)C(=O)NCC(=O)N[C@@H](C)C(=O)N1CCC[C@H]1C(=O)N1CCC[C@H]1C(=O)N1CCC[C@H]1C(=O)N[C@@H](CO)C(N)=O [Compound 180] (X18-[β2hAla(2S)]EGTFTSDYSI[Aib]LDKIAQK([AEEA-AEEA-γGlu-C20 diacid])AFVQWLIAGGPSSGAPPPS-NH2)
[1]
  EC50: < 1 µM
[2]
  EC50: > 1 µM
[3]
  EC50: 0.0001 to 0.001 µM
  Emax: 101%
[4]
  EC50: 0.0001 to 0.001 µM
  Emax: 105%
